The source made the active and inactive calls. The calls are words filed in the database; no cut-off is given here.
How the values were obtained:
Tubulin (Homo sapiens) = Tubulin (Homo sapiens) (UniProt P68371+Q9H4B7+P0DPH7+P68366+Q13509+Q71U36+P04350+Q3ZCM7+P07437+P68363+Q9BQE3+Q6PEY2+Q13885+Q9BVA1+Q9BUF5); assay: Inhibition of tubulin polymerization (unknown origin) at 20 micromol/L by fluorescence based analysis; format: protein-complex assay; details: dose 20.0 µmol/L
[1] = Antiproliferative activity against human HN-6 cells assessed as cell growth inhibition incubated for 72 hrs by CCK-8 assay; format: functional, cell-based; details: HN-6, 72 h
CAL-27 = assay: Antiproliferative activity against human CAL-27 cells assessed as cell growth inhibition incubated for 72 hrs by CCK-8 assay; format: functional, cell-based; details: CAL-27, 72 h
FaDu = assay: Antiproliferative activity against human FaDu cells assessed as cell growth inhibition incubated for 72 hrs by CCK-8 assay; format: functional, cell-based; details: read-out: IC50
Tubulin = assay: Inhibition of tubulin polymerization (unknown origin) by fluorescence based analysis; format: protein-complex assay, Homo sapiens
[2] = Induction of apoptosis in human HN-6 cells assessed as early apoptotic cells at 1 micromol/L incubated for 24 hrs by Annexin-V/FITC-PI staining based flow cytometry analysis (reference value: 2.04%); format: functional; details: dose 1 µmol/L, at 1 µM
[3] = Induction of apoptosis in human HN-6 cells assessed as late apoptotic cells at 0.1 micromol/L incubated for 24 hrs by Annexin-V/FITC-PI staining based flow cytometry analysis (reference value: 8.81%); format: functional; details: dose 0.1 µmol/L, at 0.1 µM
[4] = Cytotoxicity against human HFF-1 clls assessed as reduction in cell viability incubated for 72 hrs by CCK-8 assay; format: toxicity, cell-based; details: HFF-1 cells
[5] = Induction of apoptosis in human HN-6 cells assessed as necrotic cells at 0.1 micromol/L incubated for 24 hrs by Annexin-V/FITC-PI staining based flow cytometry analysis (reference value: 2.08%); format: functional; details: dose 0.1 µmol/L, at 0.1 µM
[6] = Acute toxicity in Kunming mouse assessed as death at 1 g/Kg,IG after 15 days of administration; details: in vivo, po, 1000 mg/kg, 360 h, time 15 day
[7] = Antimigratory activity in human HN-6 cells assessed as inhibition of cell migration at 0.1 micromol/L measured after 24 hrs by scratch wound assay based fluorescence microscope analysis; format: functional; details: HN-6, 24 h, dose 0.1 µmol/L
HN-6 [8] = assay: Inhibition of cell invasion in human HN-6 cells at 200 to 500 nmol/L incubated for 24 hrs by crystal violet staining based transwell assay; format: functional; details: dose 200-500 nmol/L
[9] = Induction of apoptosis in human HN-6 cells assessed as viable cells at 1 micromol/L incubated for 24 hrs by Annexin-V/FITC-PI staining based flow cytometry analysis (reference value: 97.26%); format: functional; details: HN-6, 24 h, dose 1 µmol/L, read-out: Activity
[10] = AUC (0 to t) in rat at 100 mg/kg,IG measured upto 24 hrs by HPLC analysis; format: ADME, organism-based; parameters: dose 100 mg/kg, time < 24 hrs, route ig; details: in vivo, po
[11] = Induction of apoptosis in human HN-6 cells assessed as necrotic cells at 1 micromol/L incubated for 24 hrs by Annexin-V/FITC-PI staining based flow cytometry analysis (reference value: 2.08%); format: functional; details: dose 1 µmol/L, at 1 µM
[12] = Induction of apoptosis in human HN-6 cells assessed as late apoptotic cells at 1 micromol/L incubated for 24 hrs by Annexin-V/FITC-PI staining based flow cytometry analysis (reference value: 8.81%); format: functional; details: dose 1 µmol/L, at 1 µM
[13] = Induction of apoptosis in human HN-6 cells assessed as early apoptotic cells at 0.1 micromol/L incubated for 24 hrs by Annexin-V/FITC-PI staining based flow cytometry analysis (reference value: 2.04%); format: functional; details: dose 0.1 µmol/L, at 0.1 µM
[14] = Half life in rat at 100 mg/kg,IG measured upto 24 hrs by HPLC analysis; format: ADME, organism-based; details: in vivo, po
[15] = Acute toxicity in Kunming mouse assessed as adverse effect at 1 g/Kg,IG after 15 days of administration; details: in vivo, po, 1000 mg/kg, 360 h, time 15 day
[16] = Induction of cell cycle arrest in human HN-6 cells assessed as accumulation of cells at S phase at 0.1 micromol/L incubated for 24 hrs by PI staining based flow cytometry analysi (reference value: 31.19%); format: functional; details: dose 0.1 µmol/L, at 0.1 µM
[17] = Cmax in rat at 100 mg/kg,IG measured upto 24 hrs by HPLC analysis; format: ADME, organism-based; parameters: dose 100 mg/kg, time < 24 hrs, route ig; details: in vivo, po
[18] = Induction of cell cycle arrest in human HN-6 cells assessed as accumulation of cells at G1 phase at 0.1 micromol/L incubated for 24 hrs by PI staining based flow cytometry analysi (reference value: 45.33%); format: functional; details: dose 0.1 µmol/L, at 0.1 µM
[19] = Induction of apoptosis in human HN-6 cells assessed as viable cells at 0.1 micromol/L incubated for 24 hrs by Annexin-V/FITC-PI staining based flow cytometry analysis (reference value: 97.26%); format: functional; details: HN-6, 24 h, dose 0.1 µmol/L, read-out: Activity
[20] = Induction of cell cycle arrest in human HN-6 cells assessed as accumulation of cells at S phase at 0.1 micromol/L incubated for 24 hrs by PI staining based flow cytometry analysi (reference value: 32.12%); format: functional; details: dose 0.1 µmol/L, at 0.1 µM
[21] = Tmax in rat at 100 mg/kg,IG measured upto 24 hrs by HPLC analysis; format: ADME, organism-based; details: in vivo, po
[22] = Acute toxicity in IG dosed Kunming mouse assessed as lethal dose after 15 days of administration; format: organism-based; details: in vivo, po, time 15 day
HN-6 [23] = assay: Induction of cell morphological changes in human HN-6 cells assessed as decrease in tubulin network around nucleus at 100 nmol/L incubated for 24 hrs by DAPI staining based confocal microscopy analysis; format: functional

CCCCCCOC(=O)Nc1nc2ccc(CCCC)cc2[nH]1
inhibition (Tubulin (Homo sapiens)): 0% | IC50 [1]: > 2000 nM

CCCCc1ccc2nc(NC(=O)NCCc3ccccc3)[nH]c2c1
IC50 (CAL-27): 499 nM | IC50 (FaDu): 775 nM | inhibition (Tubulin (Homo sapiens)): 38.7% | IC50 [1]: 429 nM

Cc1ccc2nc(NC(=O)OC(C)C)[nH]c2c1
IC50 (Tubulin): 6270 nM | inhibition (Tubulin (Homo sapiens)): 71.6% | IC50 [1]: 595 nM

CCCCc1ccc2nc(NC(=O)NC3CCCCC3)[nH]c2c1
inhibition (Tubulin (Homo sapiens)): 8.26% | IC50 [1]: 967 nM

CCCCc1ccc2nc(NC(=O)OCCC)[nH]c2c1
IC50 (Tubulin): 5340 nM | IC50 (CAL-27): 252 nM | IC50 (FaDu): 284 nM | inhibition (Tubulin (Homo sapiens)): 88.8% | IC50 [1]: 254 nM

CCCCc1ccc2nc(NC(=O)NC3CCCC3)[nH]c2c1
inhibition (Tubulin (Homo sapiens)): 32.3% | IC50 [1]: 745 nM

CCCCc1ccc2nc(NC(=O)OCCCCl)[nH]c2c1
inhibition (Tubulin (Homo sapiens)): 36.4% | IC50 [1]: 456 nM

CC[C@]1(O)C[C@@H]2CN(CCc3c([nH]c4ccccc34)[C@@](C(=O)OC)(c3cc4c(cc3OC)N(C)[C@H]3[C@@](O)(C(=O)OC)[C@H](OC(C)=O)[C@]5(CC)C=CCN6CC[C@]43[C@@H]65)C2)C1 [VINBLASTINE]
IC50 (CAL-27): 1.03 nM | IC50 (FaDu): 4.48 nM | IC50 [1]: 0.83 nM

CCCCc1ccc2nc(NC(=O)NCCOC(=O)C(C)C)[nH]c2c1
inhibition (Tubulin (Homo sapiens)): 0% | IC50 [1]: 1590 nM

CCCCc1ccc2nc(NC(=O)C3CCOCC3)[nH]c2c1
IC50 (Tubulin): 4400 nM | inhibition (Tubulin (Homo sapiens)): 100% | IC50 [1]: 1180 nM

CCCCc1ccc2nc(NC(=O)NCC)[nH]c2c1
inhibition (Tubulin (Homo sapiens)): 0% | IC50 [1]: 187 nM

Cc1cc2nc(NC(=O)OC(C)C)[nH]c2cc1C
IC50 (Tubulin): 5080 nM | inhibition (Tubulin (Homo sapiens)): 89.4% | IC50 [1]: 135 nM

CCCCc1ccc2nc(NC(=O)OCCCl)[nH]c2c1
inhibition (Tubulin (Homo sapiens)): 0% | IC50 [1]: > 2000 nM

CCCCc1ccc2nc(NC(=O)Cc3ccccc3)[nH]c2c1
inhibition (Tubulin (Homo sapiens)): 4.9% | IC50 [1]: > 2000 nM

CCCCCc1ccc2nc(NC(=O)OC(C)C)[nH]c2c1
IC50 (Tubulin): 6810 nM | IC50 (CAL-27): 312 nM | IC50 (FaDu): 228 nM | inhibition (Tubulin (Homo sapiens)): 100% | IC50 [1]: 170 nM

CC(C)OC(=O)Nc1nc2ccc(C(F)(F)F)cc2[nH]1
inhibition (Tubulin (Homo sapiens)): 4.37% | IC50 [1]: 1000 nM

COc1ccc(/C=C\c2cc(OC)c(OC)c(OC)c2)cc1O [COMBRETASTATIN A4]
IC50 (CAL-27): 3.01 nM | IC50 (FaDu): 5.05 nM | IC50 [1]: 4.43 nM

CCCCc1ccc2[nH]c(NC(=O)OC)nc2c1 [PARBENDAZOLE]
Activity [2]: 16.34% | Activity [3]: 21.71% | IC50 (Tubulin): 9550 nM | IC50 at 72 h [4]: > 20000 nM | Activity [5]: 4.46% | Activity [6]: Non-Toxic | inhibition at 0.1 µM [7]: 12.8% | inhibition (HN-6 [8]): Active | viability at 1 µM [9]: 51.8% | AUC(0-t) at 24 h [10]: 403 ng·h/mL | Activity [11]: 5.94% | Activity [12]: 25.96% | Activity [13]: 13.03% | half-life [14]: 2.16 h | IC50 (CAL-27): 173 nM | Activity [15]: Non-Toxic | Activity [16]: 69.09% | Cmax [17]: 141 ng/mL | Activity [18]: 13.56% | viability at 0.1 µM [19]: 60.8% | IC50 (FaDu): 160 nM | inhibition (Tubulin (Homo sapiens)): 76.7% | Activity [20]: 16.02% | IC50 [1]: 102 nM | Tmax [21]: 4 h | LD50 at 360 h [22]: > 1000 mg/kg | Activity (HN-6 [23]): Active

Reference: ChEMBL document CHEMBL5113404, “Design, synthesis and biological evaluation of new parbendazole derivatives for the treatment of HNSCC” (Eur J Med Chem, 2022)
